Where two headings read alike, the source gives them in different places.
Columns and labels:
GPIIb IIIa = conditions: result in words, EP 372 486 (Hoffmann La Roche); cited from earlier work
[1] = tested on: human platelet rich plasma (platelet aggregation); assay: platelet aggregation (PA) inhibition assay in human platelet rich plasma; format: cell-based
Method: In addition to the GPIIb IIIa ELISA assay, platelet aggregation assays may be performed in human platelet rich plasma (PRP). […] The blood is centrifuged at 160×g for 10 min at 22° C. and then allowed to stand for 5 min after which the PRP is decanted. Platelet poor plasma (PPP) is isolated from the remaining blood after centrifugation at 2000×g for 25 min. The platelet count of the PRP is adjusted to ca. 300,000 per microliter with PPP.
A 225 mL aliquot of PRP plus 25 mL of either a dilution of the test sample or a control (PBS) is incubated for 5 min in a Chrono-log Whole Blood Aggregometer at 25° C. An aggregating agent (collagen, 1 mg/ml; U46619, 100 ng/ml; or ADP, 8 mM) is added and the platelet aggregation recorded.

[2] = target: T1, human platelet GPIIbIIIa receptor (Homo sapiens, UniProt P05106+P08514); assay: modified fibrinogen-GPIIbIIIa ELISA (inhibition of fibrinogen binding to purified human platelet GPIIbIIIa receptor)
T1 construct: purified human platelet GPIIbIIIa receptor; from tissue; host or cells: human platelets (purified, solubilized receptor)
Method: In-vitro biological activity of the compounds of Formula I and II are monitored using a modified fibrinogen-GPIIbIIIa ELISA based on the method of Nachman and Leung (J. Clin. Invest. 69:263-269 (1982)) which measures the inhibition of fibrinogen binding to purified human platelet GPIIbIIIa receptor. Human fibrinogen is prepared by the method of Lipinska, et al. (J. Lab. Clin. Med. 84:509-516 (1974)). Platelet GPIIb IIIa is prepared by the method of Fitzgerald, et al., Anal. Biochem.,151:169-177 (1985).
Briefly, microtiter plates are coated with fibrinogen ([…]) and then blocked with TACTS buffer containing 0.5% bovine serum albumin (BSA). (TACTS buffer contains 20mM Tris.HCl, pH 7.5, 0.02% sodium azide, 2 mM calcium chloride, 0.05% Tween 20, 150 mM sodium chloride.) The plate is washed with phosphate buffered saline (PBS) containing 0.01% Tween 20 and the sample to be determined added, followed by addition of solubilized GP IIbIIIa receptor ([…]) in TACTS, 0.5% BSA. After incubation, the plate is washed and 1 mg/ml of murine anti-platelet monoclonal antibody AP3 (Newman et al., Blood 65:227-232 (1985)) is added. After another wash a goat anti-mouse IgG conjugated to horseradish peroxidase is added. A final wash is performed and developing reagent buffer (10 mg o-phenylenediamine dihydrochloride, 0.0212% hydrogen peroxide, 0.22 mM citrate, 50 mM phosphate, pH 5.0) is added and then incubated until color develops. The reaction is stopped with 1N sulfuric acid and the absorbance at 492 nm is recorded.

[3] = platelet aggregation, citrate, read-out: IC50 PA(citrate)
[4] = platelet aggregation, heparin, read-out: IC50 PA(heparin)
[5] = ELISA, read-out: IC50 Fg/IIbIIIa
[6] = Platelet, read-out: IC50 PA(citrate)
[7] = Platelet, read-out: IC50 PA(heparin)

T1 sequence (P08514 32-887 limits assumed): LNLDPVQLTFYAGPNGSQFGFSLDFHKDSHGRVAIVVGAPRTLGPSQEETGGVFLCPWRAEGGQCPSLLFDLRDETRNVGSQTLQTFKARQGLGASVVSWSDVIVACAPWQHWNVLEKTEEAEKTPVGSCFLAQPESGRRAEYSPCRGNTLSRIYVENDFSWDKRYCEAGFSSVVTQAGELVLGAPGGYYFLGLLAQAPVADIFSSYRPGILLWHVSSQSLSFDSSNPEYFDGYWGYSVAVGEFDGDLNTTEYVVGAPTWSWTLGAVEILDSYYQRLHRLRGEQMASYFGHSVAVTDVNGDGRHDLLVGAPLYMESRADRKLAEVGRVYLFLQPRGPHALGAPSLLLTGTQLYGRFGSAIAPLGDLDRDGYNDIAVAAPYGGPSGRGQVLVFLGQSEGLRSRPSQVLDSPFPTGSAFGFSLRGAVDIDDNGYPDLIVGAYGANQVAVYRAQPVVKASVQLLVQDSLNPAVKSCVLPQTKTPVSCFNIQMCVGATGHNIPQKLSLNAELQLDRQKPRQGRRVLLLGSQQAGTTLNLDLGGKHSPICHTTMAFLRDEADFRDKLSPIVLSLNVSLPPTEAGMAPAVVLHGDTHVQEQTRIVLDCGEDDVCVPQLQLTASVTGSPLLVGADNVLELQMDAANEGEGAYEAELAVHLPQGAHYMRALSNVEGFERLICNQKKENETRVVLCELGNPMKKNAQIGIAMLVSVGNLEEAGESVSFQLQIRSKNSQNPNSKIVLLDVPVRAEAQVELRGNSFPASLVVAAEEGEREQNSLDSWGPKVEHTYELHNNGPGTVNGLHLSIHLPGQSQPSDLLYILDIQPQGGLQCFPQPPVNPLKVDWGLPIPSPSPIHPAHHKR
T1 sequence (P08514 891-1039 limits assumed): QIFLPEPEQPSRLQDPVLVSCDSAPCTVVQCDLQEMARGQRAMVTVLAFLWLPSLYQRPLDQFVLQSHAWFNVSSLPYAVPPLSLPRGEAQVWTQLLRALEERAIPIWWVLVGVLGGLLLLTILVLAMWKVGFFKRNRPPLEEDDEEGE
T1 sequence (P05106 27-788): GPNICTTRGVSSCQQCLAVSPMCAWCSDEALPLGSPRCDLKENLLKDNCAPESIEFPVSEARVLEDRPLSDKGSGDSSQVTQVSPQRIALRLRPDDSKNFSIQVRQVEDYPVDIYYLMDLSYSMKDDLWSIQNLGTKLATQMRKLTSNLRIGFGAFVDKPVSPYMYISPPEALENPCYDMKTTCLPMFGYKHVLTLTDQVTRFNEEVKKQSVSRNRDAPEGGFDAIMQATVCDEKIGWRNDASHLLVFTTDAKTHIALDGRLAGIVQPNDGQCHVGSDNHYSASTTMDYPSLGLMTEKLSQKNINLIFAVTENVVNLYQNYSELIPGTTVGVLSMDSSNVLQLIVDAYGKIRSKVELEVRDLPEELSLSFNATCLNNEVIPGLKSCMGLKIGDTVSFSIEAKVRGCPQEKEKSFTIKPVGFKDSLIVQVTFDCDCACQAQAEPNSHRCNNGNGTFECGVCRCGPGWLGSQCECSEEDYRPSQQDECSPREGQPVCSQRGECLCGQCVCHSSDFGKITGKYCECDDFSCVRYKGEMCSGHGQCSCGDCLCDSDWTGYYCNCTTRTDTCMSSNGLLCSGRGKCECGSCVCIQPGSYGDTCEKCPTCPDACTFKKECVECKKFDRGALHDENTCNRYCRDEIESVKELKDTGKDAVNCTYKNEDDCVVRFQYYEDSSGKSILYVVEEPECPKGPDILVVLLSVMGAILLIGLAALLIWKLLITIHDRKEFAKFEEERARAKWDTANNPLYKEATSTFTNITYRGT

In the case of `N=C(N)c1ccc(C(=O)Nc2cccc(C(=O)NCCC(=O)O)c2)cc1` [drawing 2], the “IC50 in an ELISA measurement of fibrinogen GPIIb IIIa binding” value (GPIIb IIIa) is listed as “particular low IC50”.
With `Cc1nnc2n1-c1ccc(OCc3ccc(C(=N)N)cc3)cc1C(=O)N(CCC(=O)O)C2` [p-H2 N(NH)CC6 H4 CH2 O] the IC50 [1, 3] was 5 nM and the IC50 [1, 4] was 86 nM.
With `N=C(N)c1ccc(C(=O)Nc2cccc(C(=O)NCCC(=O)O)c2)cc1` [N-[3-(4-amidinobenzamido)benzoyl]-3-aminoproprionoic acid, reference compound] the IC50 ([2]; internal standard, measured according to the assays described herein, read-out: Fg/GPIIb IIIa ELISA IC50) was about 25 nM and the IC50 ([1]; Platelet, internal standard, measured according to the assays described herein, anticoagulant not stated, read-out: PA inhibition assay IC50) was about 3000 nM.
With `N=C(N)c1ccc(COc2ccc3c(c2)C(=O)N(CCC(=O)O)Cc2nc4ccccc4c(=O)n2-3)cc1` [p-H2 N(NH)CC6 H4 CH2 O] the IC50 [1, 3] was 540 nM and the IC50 [1, 4] was 1700 nM.
With `Cc1cnc2n1-c1ccc(OCc3ccc(C(=N)N)cc3)cc1C(=O)N(CCC(=O)O)C2` [p-H2 N(NH)CC6 H4 CH2 O] the IC50 [2, 5] was 9 nM, the IC50 [1, 6] was 133 nM and the IC50 [1, 7] was 220 nM.
In the case of `Cc1cnc2n1-c1ccc(C#CCCCCN)cc1C(=O)N(CCC(=O)O)C2` [H2 N(CH2)4 CC], the IC50 [2, 5] is reported as 57 nM and the IC50 [1, 6] is reported as 8290 nM.
With `Cc1cnc2n1-c1ccc(C#Cc3ccc(C(=N)N)cc3)cc1C(=O)N(CCC(=O)O)C2` [p-H2 N(NH)CC6 H4 CC] the IC50 [2, 5] was 4 nM, the IC50 [1, 6] was 93 nM and the IC50 [1, 7] was 240 nM.
